ChEMBL document CHEMBL5465560, “Selectivity Literature for EUbOPEN Chemogenomic Library” (2024)

What was measured:
[1] = test system: Phosphatidylinositol 4,5-bisphosphate 3-kinase catalytic subunit alpha isoform (Homo sapiens), P42336 [E542K]; assay: (§1) Selectivity interaction (KinomeScan (DiscoverX)) EUB0001049a PIK3CA; settings: at 1 µM
[2] = test system: Phosphatidylinositol 4,5-bisphosphate 3-kinase catalytic subunit alpha isoform (Homo sapiens), P42336 [E545A]; assay: as §1; settings: at 1 µM
[3] = test system: Phosphatidylinositol 4,5-bisphosphate 3-kinase catalytic subunit alpha isoform (Homo sapiens), P42336 [M1043I]; assay: as §1; settings: at 1 µM
[4] = test system: Phosphatidylinositol 4,5-bisphosphate 3-kinase catalytic subunit alpha isoform (Homo sapiens), P42336 [H1047Y]; assay: as §1; settings: at 1 µM
[5] = test system: Phosphatidylinositol 4,5-bisphosphate 3-kinase catalytic subunit alpha isoform (Homo sapiens), P42336 [H1047L]; assay: as §1; settings: at 1 µM
Chain of Phosphatidylinositol 4,5-bisphosphate 3-kinase catalytic subunit alpha isoform (Homo sapiens), P42336 [H1047L] (P42336 whole entry H1047L, canonical isoform): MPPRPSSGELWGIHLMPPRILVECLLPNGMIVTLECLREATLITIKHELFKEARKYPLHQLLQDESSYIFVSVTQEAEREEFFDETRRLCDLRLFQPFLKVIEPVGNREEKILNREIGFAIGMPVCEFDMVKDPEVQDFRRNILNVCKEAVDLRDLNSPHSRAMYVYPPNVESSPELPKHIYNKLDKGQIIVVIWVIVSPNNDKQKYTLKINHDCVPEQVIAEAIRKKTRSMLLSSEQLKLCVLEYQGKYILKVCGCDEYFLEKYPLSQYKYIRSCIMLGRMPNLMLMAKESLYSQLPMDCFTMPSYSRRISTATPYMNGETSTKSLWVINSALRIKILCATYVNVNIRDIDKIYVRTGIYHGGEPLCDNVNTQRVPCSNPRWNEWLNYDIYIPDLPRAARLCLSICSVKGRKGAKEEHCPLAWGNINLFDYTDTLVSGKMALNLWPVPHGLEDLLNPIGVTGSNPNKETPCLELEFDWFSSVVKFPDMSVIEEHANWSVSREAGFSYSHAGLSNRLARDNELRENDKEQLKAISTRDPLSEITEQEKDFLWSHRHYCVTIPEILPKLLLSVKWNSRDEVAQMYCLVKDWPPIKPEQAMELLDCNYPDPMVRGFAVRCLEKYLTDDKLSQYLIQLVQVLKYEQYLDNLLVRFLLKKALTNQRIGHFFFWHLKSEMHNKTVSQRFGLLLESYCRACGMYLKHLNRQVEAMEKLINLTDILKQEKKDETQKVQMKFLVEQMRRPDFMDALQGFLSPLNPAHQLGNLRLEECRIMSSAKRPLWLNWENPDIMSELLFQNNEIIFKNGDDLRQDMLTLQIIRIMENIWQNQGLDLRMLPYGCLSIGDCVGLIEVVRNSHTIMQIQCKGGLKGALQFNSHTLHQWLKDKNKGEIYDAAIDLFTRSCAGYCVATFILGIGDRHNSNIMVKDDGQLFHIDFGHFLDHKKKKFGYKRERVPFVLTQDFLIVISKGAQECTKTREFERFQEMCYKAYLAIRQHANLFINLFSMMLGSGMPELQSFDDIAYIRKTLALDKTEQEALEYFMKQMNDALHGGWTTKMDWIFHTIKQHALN

[6] = molecular target: Phosphatidylinositol 4,5-bisphosphate 3-kinase catalytic subunit alpha isoform (Homo sapiens) (UniProt P42336); assay: as §1; settings: at 1 µM
[7] = test system: Phosphatidylinositol 4,5-bisphosphate 3-kinase catalytic subunit alpha isoform (Homo sapiens), P42336 [Q546K]; assay: as §1; settings: at 1 µM
[8] = test system: Phosphatidylinositol 4,5-bisphosphate 3-kinase catalytic subunit alpha isoform (Homo sapiens), P42336 [C420R]; assay: as §1; settings: at 1 µM
[9] = test system: Phosphatidylinositol 4,5-bisphosphate 3-kinase catalytic subunit alpha isoform (Homo sapiens), P42336 [I800L]; assay: as §1; settings: at 1 µM
[10] = test system: Phosphatidylinositol 4,5-bisphosphate 3-kinase catalytic subunit alpha isoform (Homo sapiens), P42336 [E545K]; assay: as §1; settings: at 1 µM
[11] = molecular target: Death-associated protein kinase 2 (Homo sapiens) (UniProt Q9UIK4); assay: Selectivity interaction (KinomeScan (DiscoverX)) EUB0000666a DAPK2; settings: at 10 µM
[12] = molecular target: Serine/threonine-protein kinase 26 (Homo sapiens, UniProt Q9P289); assay: Selectivity interaction (Kinase panel (DSF assay)) EUB0001559a STK26
[13] = molecular target: T1, STE20-like serine/threonine-protein kinase (Homo sapiens, UniProt Q9H2G2); assay: Selectivity interaction (ActivX KiNativ screen (kinase selectivity in THP-1 cell lysates)) EUB0000639a SLK; format: subcellular; settings: lysate
T1 sequence (Q9H2G2 whole entry, looked up): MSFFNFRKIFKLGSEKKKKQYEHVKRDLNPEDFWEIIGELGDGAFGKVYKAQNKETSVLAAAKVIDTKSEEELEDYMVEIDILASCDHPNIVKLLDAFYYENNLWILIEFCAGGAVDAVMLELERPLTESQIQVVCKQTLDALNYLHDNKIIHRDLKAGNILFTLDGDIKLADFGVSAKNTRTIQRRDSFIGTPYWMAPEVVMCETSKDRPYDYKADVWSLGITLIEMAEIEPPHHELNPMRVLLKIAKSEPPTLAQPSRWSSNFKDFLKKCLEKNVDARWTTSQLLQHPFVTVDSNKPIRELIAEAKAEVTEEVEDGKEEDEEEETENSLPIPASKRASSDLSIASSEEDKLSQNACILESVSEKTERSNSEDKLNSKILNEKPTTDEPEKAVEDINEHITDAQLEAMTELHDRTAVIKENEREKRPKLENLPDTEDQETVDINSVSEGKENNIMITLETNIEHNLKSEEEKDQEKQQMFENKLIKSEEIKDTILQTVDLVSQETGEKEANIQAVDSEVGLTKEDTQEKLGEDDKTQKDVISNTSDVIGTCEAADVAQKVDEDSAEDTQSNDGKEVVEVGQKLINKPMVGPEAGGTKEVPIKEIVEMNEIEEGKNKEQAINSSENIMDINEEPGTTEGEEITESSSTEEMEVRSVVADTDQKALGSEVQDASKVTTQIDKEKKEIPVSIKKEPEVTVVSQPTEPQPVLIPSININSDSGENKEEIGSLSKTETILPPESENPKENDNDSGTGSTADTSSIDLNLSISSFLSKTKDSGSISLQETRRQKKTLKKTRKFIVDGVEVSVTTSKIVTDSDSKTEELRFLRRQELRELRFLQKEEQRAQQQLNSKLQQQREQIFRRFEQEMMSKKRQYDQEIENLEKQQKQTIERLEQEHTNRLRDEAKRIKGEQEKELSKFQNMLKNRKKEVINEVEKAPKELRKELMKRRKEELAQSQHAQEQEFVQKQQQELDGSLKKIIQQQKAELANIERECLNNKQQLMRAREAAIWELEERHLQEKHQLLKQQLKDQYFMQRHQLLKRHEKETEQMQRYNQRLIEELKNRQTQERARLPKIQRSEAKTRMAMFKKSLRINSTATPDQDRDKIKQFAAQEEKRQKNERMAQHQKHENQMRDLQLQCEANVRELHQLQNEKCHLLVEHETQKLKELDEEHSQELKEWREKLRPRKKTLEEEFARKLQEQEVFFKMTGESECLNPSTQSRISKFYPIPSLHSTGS

[14] = molecular target: T1, STE20-like serine/threonine-protein kinase; assay: Selectivity interaction (Kinase panel (Invitrogen)) EUB0000639a SLK; settings: at 200 nM
[15] = test system: Epidermal growth factor receptor (Homo sapiens), P00533 [L858R,T790M]; assay: (§2) Selectivity interaction (Ambit KINOMEscan and KiNATiv profiling in Jurkat cells) EUB0000090b EGFR; format: cell-based; settings: at 1 µM
[16] = test system: Epidermal growth factor receptor (Homo sapiens), P00533 [T790M]; assay: as §2; format: cell-based; settings: at 1 µM
Chain of Epidermal growth factor receptor (Homo sapiens), P00533 [T790M] (P00533 whole entry T790M): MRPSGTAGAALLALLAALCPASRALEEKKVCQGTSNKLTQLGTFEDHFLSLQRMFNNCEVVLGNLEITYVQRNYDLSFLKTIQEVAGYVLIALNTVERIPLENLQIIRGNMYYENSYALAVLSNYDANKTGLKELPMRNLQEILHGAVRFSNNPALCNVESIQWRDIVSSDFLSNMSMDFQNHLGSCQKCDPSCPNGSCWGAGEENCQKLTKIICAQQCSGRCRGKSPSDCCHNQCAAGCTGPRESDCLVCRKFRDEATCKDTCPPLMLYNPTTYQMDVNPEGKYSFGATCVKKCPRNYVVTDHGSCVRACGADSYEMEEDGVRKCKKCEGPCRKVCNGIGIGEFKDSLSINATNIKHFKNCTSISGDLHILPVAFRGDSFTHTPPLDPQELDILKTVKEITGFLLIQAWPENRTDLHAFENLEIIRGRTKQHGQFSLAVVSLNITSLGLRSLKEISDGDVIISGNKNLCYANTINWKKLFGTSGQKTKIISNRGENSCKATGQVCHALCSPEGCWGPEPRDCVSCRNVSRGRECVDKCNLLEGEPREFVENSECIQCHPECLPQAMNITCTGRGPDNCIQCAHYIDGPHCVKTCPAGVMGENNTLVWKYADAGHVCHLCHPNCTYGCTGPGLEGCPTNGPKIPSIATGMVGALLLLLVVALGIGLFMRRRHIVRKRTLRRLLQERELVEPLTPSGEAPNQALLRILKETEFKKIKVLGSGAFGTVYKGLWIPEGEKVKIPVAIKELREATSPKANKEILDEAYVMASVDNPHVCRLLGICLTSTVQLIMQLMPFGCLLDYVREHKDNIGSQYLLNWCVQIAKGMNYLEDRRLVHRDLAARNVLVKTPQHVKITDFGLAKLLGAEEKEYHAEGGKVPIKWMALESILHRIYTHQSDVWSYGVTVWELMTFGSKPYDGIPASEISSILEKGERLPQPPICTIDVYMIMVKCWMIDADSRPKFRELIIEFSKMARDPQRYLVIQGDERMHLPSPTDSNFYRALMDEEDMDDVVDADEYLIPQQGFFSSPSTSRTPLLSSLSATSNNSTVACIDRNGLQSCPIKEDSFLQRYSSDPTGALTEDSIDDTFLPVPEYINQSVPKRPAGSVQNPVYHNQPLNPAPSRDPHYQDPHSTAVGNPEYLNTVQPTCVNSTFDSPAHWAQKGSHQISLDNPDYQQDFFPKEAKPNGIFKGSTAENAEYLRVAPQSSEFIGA

[17] = test system: Epidermal growth factor receptor (Homo sapiens), P00533 [L858R]; assay: as §2; format: cell-based; settings: at 1 µM
[18] = test system: Epidermal growth factor receptor (Homo sapiens), P00533 [G719C]; assay: as §2; format: cell-based; settings: at 1 µM
[19] = test system: Epidermal growth factor receptor (Homo sapiens), P00533 [G719S]; assay: as §2; format: cell-based; settings: at 1 µM
[20] = test system: Epidermal growth factor receptor (Homo sapiens), P00533 [UNDEFINED MUTATION]; assay: as §2; format: cell-based; settings: at 1 µM
[21] = molecular target: T2, Epidermal growth factor receptor (Homo sapiens, UniProt P00533); assay: as §2; format: cell-based; settings: at 1 µM
T2 sequence (P00533 whole entry): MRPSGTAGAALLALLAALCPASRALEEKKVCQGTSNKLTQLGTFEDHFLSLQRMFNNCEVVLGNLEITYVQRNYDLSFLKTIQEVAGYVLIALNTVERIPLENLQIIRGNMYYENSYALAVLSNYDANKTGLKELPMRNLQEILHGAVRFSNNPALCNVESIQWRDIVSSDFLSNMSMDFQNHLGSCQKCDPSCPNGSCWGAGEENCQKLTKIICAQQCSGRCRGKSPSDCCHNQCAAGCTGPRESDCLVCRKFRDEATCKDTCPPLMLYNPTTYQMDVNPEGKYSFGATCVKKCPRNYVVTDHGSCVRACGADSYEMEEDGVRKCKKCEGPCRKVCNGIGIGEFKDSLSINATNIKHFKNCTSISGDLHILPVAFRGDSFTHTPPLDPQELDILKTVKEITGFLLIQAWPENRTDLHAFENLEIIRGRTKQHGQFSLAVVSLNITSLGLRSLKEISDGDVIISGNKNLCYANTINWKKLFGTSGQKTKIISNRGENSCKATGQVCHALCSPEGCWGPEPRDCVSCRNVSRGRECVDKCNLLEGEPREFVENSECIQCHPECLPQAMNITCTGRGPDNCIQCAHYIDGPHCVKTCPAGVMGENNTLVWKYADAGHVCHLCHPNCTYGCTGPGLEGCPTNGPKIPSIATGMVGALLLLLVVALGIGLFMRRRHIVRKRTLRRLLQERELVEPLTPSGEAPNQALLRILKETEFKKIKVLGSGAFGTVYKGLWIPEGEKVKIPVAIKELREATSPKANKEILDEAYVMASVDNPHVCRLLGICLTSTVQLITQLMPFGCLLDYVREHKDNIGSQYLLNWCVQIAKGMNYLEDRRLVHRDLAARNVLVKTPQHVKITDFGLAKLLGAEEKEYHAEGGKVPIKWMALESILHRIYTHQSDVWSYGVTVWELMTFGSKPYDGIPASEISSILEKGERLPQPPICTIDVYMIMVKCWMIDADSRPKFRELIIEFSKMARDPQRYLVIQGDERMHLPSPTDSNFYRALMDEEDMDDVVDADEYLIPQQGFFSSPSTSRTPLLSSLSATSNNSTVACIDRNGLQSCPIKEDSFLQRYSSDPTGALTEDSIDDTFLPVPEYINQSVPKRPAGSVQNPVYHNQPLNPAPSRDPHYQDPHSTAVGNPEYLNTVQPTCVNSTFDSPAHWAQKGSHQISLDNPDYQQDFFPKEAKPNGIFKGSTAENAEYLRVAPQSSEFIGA

[22] = test system: Epidermal growth factor receptor (Homo sapiens), P00533 [L861Q]; assay: as §2; format: cell-based; settings: at 1 µM
[23] = molecular target: Protein kinase C eta type (Homo sapiens) (UniProt P24723); assay: Selectivity interaction (Ambit KINOMEscan and KiNATiv profiling in Jurkat cells) EUB0000090b PRKCH; format: cell-based; settings: at 1 µM
[24] = molecular target: T3, Tyrosine-protein kinase receptor TYRO3 (Homo sapiens) (UniProt Q06418); assay: Selectivity interaction (KinomeScan (DiscoverX)) EUB0000618a TYRO3; settings: at 10 µM
T3 sequence (whole entry): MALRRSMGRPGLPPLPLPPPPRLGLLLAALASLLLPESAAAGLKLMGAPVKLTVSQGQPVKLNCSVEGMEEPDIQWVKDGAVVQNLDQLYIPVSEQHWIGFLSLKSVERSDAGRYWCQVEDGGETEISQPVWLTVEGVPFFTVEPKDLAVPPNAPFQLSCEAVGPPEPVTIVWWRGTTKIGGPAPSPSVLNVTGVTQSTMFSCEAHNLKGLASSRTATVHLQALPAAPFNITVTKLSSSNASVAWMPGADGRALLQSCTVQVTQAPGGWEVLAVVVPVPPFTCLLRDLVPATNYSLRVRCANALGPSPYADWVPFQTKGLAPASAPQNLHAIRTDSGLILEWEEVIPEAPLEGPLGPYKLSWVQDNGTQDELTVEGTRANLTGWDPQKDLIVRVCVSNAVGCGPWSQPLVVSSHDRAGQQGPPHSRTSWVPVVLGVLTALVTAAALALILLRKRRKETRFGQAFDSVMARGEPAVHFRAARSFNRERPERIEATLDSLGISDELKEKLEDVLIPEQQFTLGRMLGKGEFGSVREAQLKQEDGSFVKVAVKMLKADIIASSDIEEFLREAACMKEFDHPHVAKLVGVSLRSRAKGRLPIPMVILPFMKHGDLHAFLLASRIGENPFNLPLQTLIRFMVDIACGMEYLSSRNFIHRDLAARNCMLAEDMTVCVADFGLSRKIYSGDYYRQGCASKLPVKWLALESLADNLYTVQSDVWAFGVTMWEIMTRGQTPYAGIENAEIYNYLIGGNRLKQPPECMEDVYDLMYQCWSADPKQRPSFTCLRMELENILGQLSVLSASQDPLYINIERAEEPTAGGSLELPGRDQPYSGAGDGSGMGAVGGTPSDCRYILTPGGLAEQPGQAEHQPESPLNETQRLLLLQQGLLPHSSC

[25] = molecular target: MAP kinase-activated protein kinase 3 (Homo sapiens) (UniProt Q16644); assay: Selectivity interaction (Upstate Kinase Profiler service (Millipore)) EUB0000056c MAPKAPK3; settings: at 1 µM
Chain of MAP kinase-activated protein kinase 3 (Homo sapiens) (Q16644 whole entry, looked up): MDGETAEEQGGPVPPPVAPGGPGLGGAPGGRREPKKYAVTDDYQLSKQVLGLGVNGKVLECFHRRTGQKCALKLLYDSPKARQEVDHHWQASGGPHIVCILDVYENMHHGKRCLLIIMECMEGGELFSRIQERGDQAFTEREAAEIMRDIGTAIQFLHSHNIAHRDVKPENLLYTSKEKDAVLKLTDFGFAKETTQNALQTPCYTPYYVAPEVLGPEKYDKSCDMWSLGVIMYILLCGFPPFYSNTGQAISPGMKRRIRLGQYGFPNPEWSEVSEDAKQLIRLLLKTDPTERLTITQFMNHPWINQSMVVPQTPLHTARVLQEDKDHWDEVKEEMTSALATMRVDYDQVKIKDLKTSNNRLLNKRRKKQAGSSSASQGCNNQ

[26] = molecular target: Cyclin-dependent kinase 16 (Homo sapiens) (UniProt Q00536); assay: Selectivity interaction (KinomeScan (DiscoverX)) EUB0000695a CDK16; settings: at 100 nM
[27] = molecular target: T2, Epidermal growth factor receptor; assay: Selectivity interaction (Rxn Biology Kinase assay) EUB0001632a EGFR; settings: at 10 µM
[28] = molecular target: Vascular endothelial growth factor receptor 3 (Homo sapiens, UniProt P35916); assay: Selectivity interaction (Kinase panel (Z-LYTE Assay)) EUB0001632a FLT4; settings: at 10 µM
[29] = molecular target: Serine/threonine-protein kinase 32B (Homo sapiens) (UniProt Q9NY57); assay: Selectivity interaction (LanthaScreen Eu Kinase Binding Assay) EUB0001632a STK32B; settings: at 10 µM

Compound: COc1cc(Nc2nc(C)cc(-c3cnn4nc(OC)ccc34)n2)cc(C(F)(F)F)c1
- % of control [1]: 59%
- % of control [2]: 77%
- % of control [3]: 100%
- % of control [4]: 85%
- % of control [5]: 100%
- % of control [6]: 100%
- % of control [7]: 66%
- % of control [8]: 76%
- % of control [9]: 46%
- % of control [10]: 71%

Compound: O=C(NOC[C@H](O)CO)c1ccc(F)c(F)c1Nc1ccc(I)cc1F
- % of control [11]: 100%

Compound: CN(C(=O)c1cnn2cccnc12)c1cc2c(cc1N1CCOCC1)C(=O)N(C[C@@H](F)C(C)(C)O)C2
- dTM [12]: 0.5 K

Compound: CC[C@@H]1[C@H](F)C(=O)N[C@@H]1COc1nccc2cc(C(N)=O)c(OC)cc12 [ZIMLOVISERTIB]
- % of inhibition ([13]; at 0.01 µM): 3.3%
- % of inhibition ([13]; at 0.04 µM): -3.6%
- % of inhibition ([13]; at 0.2 µM): -8.9%
- % of inhibition ([13]; at 1 µM): -13.7%
- % of inhibition ([13]; at 5 µM): -7.8%
- % of inhibition [14]: -0.0851%

Compound: CN(C)C/C=C/C(=O)Nc1ccc(C(=O)N2CCCC(Nc3ncc(Cl)c(-c4c[nH]c5ccccc45)n3)C2)cc1 (stereo not drawn)
- % of control [15]: 90%
- % of control [16]: 99%
- % of control [17]: 100%
- % of control [18]: 88%
- % of control [19]: 91%
- % of control [20]: 70%
- % of control [21]: 99%
- % of control [22]: 71%
- % of control [23]: 91%

Compound: O[C@H]1CC[C@H](Nc2ncc3nc(Nc4c(F)cc(F)cc4F)n([C@H]4CCOC4)c3n2)CC1
- % of control [24]: 100%

Compound: Cc1ccc(-c2ccc3c(ccc4sc5c(c43)NC[C@@H](C)NC5=O)n2)cn1
- % of inhibition [25]: 89%

Compound: Cc1cc(F)c(C(=O)Nc2cccc(-c3nncn3C(C)C)n2)cc1-n1cnc(C2CC2)c1
- % of control [26]: 75%

Compound: Cn1cc(-n2cnc3c(NCc4nc5cc(Cl)c(Cl)cc5[nH]4)nc(N4CCOCC4)nc32)cn1
- % of inhibition [27]: 3.44%
- % of control [28]: 11.7%
- % of inhibition [29]: -8.62%
